One assay has as its target E. coli DNA gyrase (Escherichia coli, UniProt P0AES4+P0AES6). Format: biochemical. The note with it: for result in words, pathogen box screen for E. coli DNA gyrase: 400 compounds, several rounds of screening; for hit call, gyrase HTS (FIG. 7): 20 μM, triplicate, Z′ 0.64, S/B 4.3.
In a further assay the target is Mtb DNA topoisomerase I (Mycobacterium tuberculosis, UniProt P9WG49). Format: biochemical. The note with it: for screening result in words (Mtb topo I HTS): interpretation of Table 4.
Chain of Mtb DNA topoisomerase I (P9WG49 whole entry): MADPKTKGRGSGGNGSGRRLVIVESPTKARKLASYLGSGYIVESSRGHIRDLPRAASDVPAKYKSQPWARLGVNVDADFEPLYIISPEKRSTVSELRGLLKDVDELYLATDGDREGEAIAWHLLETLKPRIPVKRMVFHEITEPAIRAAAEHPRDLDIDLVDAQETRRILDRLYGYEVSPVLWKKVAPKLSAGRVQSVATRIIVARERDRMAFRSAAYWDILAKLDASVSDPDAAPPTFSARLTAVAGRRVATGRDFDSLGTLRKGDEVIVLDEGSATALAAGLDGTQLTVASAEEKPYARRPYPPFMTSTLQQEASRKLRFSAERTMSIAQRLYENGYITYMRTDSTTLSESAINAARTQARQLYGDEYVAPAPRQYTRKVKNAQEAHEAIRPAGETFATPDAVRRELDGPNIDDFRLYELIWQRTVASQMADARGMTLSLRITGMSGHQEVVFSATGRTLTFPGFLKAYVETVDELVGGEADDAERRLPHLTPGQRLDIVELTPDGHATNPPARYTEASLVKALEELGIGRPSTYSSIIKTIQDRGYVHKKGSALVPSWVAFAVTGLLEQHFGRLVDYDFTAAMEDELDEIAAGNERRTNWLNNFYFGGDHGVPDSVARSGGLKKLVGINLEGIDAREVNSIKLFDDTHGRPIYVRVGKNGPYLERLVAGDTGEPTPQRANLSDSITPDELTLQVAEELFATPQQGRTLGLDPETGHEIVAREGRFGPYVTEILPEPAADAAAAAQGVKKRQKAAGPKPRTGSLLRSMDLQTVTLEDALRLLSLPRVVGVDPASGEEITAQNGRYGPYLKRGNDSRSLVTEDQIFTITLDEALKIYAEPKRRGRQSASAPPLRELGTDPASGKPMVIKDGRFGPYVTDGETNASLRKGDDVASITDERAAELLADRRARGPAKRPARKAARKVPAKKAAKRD
Assay [1] addresses E. coli DNA topoisomerase I (Escherichia coli, UniProt P06612). Format: biochemical. The note with it: for screening result in words (E. coli topo I HTS): interpretation of Table 5 / FIG. 11.
Assay [2] addresses variola virus DNA topoisomerase 1 (vTopI) (Variola virus, UniProt P32989). Format: biochemical. The note with it: for screening result in words (Variola topo I HTS): interpretation of Table 6.
The target in a further assay is MtbTopI (Mycobacterium tuberculosis, UniProt P9WG49). The assay can be described thus: MtbTopI inhibition test of FIG. 14. Format: biochemical.
Chain of MtbTopI (P9WG49 whole entry): as above
The target in assay [3] is T1, human DNA topoisomerase I (HuTopI) (Homo sapiens, UniProt P11387).
T1 sequence (P11387 1-765): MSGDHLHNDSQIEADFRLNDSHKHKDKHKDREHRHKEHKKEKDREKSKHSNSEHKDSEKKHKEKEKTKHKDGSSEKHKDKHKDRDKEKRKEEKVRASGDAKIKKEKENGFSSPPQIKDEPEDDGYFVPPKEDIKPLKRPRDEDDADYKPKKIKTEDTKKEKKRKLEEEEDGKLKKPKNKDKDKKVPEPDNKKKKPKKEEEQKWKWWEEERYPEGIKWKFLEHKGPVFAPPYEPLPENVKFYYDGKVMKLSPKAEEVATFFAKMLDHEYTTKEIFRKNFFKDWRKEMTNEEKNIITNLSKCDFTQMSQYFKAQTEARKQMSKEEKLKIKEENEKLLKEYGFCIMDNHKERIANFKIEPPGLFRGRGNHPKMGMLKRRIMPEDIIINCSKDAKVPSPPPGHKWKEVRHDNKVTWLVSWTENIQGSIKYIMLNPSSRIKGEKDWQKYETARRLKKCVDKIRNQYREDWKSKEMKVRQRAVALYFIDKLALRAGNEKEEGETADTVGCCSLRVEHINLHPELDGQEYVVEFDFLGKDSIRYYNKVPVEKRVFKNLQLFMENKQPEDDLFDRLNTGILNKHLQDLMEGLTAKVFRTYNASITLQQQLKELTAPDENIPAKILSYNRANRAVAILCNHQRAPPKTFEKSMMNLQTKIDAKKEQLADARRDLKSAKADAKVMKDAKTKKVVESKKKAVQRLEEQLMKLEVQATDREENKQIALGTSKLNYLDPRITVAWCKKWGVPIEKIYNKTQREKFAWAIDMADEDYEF
The assay can be described thus: Human TopI-catalyzed DNA relaxation of sc pAB1_FL905 (fluorescence, FIG. 14). Format: biochemical. The note with it: 25 nM huTopI, sc pAB1_FL905, λem=521 nm, λex=482 nm; read-out: IC50 for inhibition of HuTopI activities.

Another assay relates to supercoiled plasmid pAB1. The assay can be described thus: T5 exonuclease-based HTS assay for DNA intercalators (sc pAB1, no topoisomerase).

Entries after “also recorded” stand apart in the source; their conditions may differ. Counter-ions that a name gives are not always drawn. Like-named read-outs stand apart in the source and are kept apart here. Where a SMILES comes first, the peptide text is derived from it. Bridges are numbered along the chain shown (N, C = ends). [ ]: non-standard residue; d: D form. The star is where a group is joined. Octanoyl(6-Me) = CCC(C)CCCCC(=O)*; Dab = NCC[CH](N)C(=O)O

Chain of variola virus DNA topoisomerase 1 (vTopI) (P32989 whole entry, looked up): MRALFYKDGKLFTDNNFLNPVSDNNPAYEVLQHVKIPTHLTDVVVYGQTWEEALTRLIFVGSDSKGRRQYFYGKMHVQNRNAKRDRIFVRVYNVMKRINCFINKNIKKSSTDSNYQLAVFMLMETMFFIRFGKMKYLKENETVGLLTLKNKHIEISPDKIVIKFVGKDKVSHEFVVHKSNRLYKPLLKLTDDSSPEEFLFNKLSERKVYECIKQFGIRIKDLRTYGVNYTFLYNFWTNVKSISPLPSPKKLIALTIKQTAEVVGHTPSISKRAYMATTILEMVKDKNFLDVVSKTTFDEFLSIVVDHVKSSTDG
Chain of E. coli DNA gyrase (P0AES4 whole entry, one chain of several): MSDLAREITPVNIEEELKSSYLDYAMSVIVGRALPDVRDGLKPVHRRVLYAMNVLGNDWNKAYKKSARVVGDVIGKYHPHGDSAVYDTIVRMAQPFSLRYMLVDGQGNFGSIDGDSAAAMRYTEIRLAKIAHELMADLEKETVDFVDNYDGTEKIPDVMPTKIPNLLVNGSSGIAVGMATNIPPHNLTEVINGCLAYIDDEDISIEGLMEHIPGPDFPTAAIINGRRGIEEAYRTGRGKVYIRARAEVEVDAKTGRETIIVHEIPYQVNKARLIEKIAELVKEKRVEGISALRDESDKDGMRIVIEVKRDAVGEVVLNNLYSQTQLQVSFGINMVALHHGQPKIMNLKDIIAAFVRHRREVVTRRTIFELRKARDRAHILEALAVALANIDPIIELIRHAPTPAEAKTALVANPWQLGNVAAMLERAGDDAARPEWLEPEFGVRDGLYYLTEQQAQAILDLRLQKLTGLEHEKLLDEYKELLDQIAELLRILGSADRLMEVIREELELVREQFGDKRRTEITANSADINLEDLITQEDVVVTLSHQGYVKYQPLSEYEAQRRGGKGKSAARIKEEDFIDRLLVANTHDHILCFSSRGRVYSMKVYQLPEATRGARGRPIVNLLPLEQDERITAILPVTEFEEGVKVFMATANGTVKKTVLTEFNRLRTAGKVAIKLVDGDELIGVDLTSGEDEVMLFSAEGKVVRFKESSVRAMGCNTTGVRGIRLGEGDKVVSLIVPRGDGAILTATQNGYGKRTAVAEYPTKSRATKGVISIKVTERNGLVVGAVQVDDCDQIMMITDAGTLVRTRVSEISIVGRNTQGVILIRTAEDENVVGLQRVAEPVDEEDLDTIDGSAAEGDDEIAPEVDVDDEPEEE
Chain of E. coli DNA topoisomerase I (P06612 whole entry): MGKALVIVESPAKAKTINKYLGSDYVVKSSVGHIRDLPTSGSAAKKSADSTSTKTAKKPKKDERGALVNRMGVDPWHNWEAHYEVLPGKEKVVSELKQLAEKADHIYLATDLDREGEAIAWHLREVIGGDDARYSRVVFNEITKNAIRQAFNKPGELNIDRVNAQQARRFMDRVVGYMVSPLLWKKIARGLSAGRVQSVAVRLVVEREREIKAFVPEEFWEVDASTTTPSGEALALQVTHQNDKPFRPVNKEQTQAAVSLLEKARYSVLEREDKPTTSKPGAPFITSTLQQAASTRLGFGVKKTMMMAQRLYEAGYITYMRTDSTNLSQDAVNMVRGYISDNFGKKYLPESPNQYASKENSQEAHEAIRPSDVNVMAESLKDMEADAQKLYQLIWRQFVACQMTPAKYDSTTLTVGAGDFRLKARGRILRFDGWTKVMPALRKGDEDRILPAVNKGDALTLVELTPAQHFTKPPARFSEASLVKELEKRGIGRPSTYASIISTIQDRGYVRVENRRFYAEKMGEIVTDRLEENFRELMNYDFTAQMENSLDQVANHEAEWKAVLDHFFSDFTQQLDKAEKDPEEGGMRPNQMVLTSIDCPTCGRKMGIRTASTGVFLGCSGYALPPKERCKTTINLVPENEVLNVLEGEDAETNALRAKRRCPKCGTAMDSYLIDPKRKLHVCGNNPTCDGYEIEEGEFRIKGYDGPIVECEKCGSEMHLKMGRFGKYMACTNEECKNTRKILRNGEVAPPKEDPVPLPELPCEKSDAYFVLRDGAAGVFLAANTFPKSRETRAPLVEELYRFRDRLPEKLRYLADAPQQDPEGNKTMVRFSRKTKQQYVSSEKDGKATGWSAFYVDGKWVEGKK

In the case of `O=C(O)c1cn(C2CC2)c2cc(N3CCNCC3)c(F)cc2c1=O` [Ciprofloxacin], at E. coli DNA gyrase, the “fluorescence, HTS screening of 50-compound library for E. coli DNA gyrase inhibitors” value (“fluorescence … for E. coli DNA gyrase inhibitors” below) came to 1803 and the “screening result in words (Table 2, gyrase HTS)” value was “DNA intercalators”. Besides, the “fluorescence, HTS screening of 50-compound library for Mtb DNA topoisomerase 1 inhibitors” value at Mtb DNA topoisomerase I is on record as 1493. Moreover, the “fluorescence, HTS screening of 50-compound library for E. coli DNA topoisomerase 1 inhibitors” value in assay [1] was found to be 1191.

For the compound `CCN1CCN(c2cc3c(cc2F)c(=O)c(C(=O)O)cn3C2CC2)CC1` [Enrofloxacin], at E. coli DNA gyrase (interpretation of Table 2), the “screening result in words (Table 2, gyrase HTS)” value is reported as “DNA intercalators”. Moreover, the “screening result in words (Variola topo I HTS)” value in assay [2] is on record as “can inhibit Variola topo I”.

With `NCC(=O)O` [Glycine], at E. coli DNA gyrase, the “fluorescence … for E. coli DNA gyrase inhibitors” value worked out at 644. Also, on Mtb DNA topoisomerase I, the “fluorescence, HTS screening of 50-compound library for Mtb DNA topoisomerase 1 inhibitors” value is reported as 1321. Also, the “fluorescence, HTS screening of 50-compound library for E. coli DNA topoisomerase 1 inhibitors” value in assay [1] is given as 1589.

Turning to `NCCCC[C@H](N)C(=O)O` [L-lysine], the “fluorescence, HTS screening of 50-compound library (Table 6; vTopI)” value (“fluorescence, HTS screening … (Table 6; vTopI)” for short) in assay [2] was 1028.

For `C[C@H]1COc2c(N3CCN(C)CC3)c(F)cc3c(=O)c(C(=O)O)cn1c23` [Levofloxacin], the “screening result in words (Table 2, gyrase HTS)” value on E. coli DNA gyrase (interpretation of Table 2) was “DNA intercalators”. Also, the “result in words, pathogen box screen for E. coli DNA gyrase” value at E. coli DNA gyrase was “inhibit E. coli DNA gyrase activities”.

As to `CCn1cc(C(=O)O)c(=O)c2cc(F)c(N3CCNC(C)C3)c(F)c21` (centres unmarked) [Lomefloxacin], the “screening result in words (Table 2, gyrase HTS)” value on E. coli DNA gyrase (interpretation of Table 2) was “DNA intercalators”.

For `NC(N)=Nc1ccc(-c2ccc(-c3ccc(N=C(N)N)cc3Cl)o2)c(Cl)c1` [MMV688179], the “result in words, pathogen box screen for E. coli DNA gyrase” value on E. coli DNA gyrase is given as “inhibit E. coli DNA gyrase activities”.

Regarding `CCCCCCCCOC(=O)c1cc(O)c(O)c(O)c1` [NSC97419], the “screening result in words (Mtb topo I HTS)” value on Mtb DNA topoisomerase I was “new Mtb DNA topI inhibitors; also recorded: can inhibit Mtb topo I”. In addition, the “screening result in words (Variola topo I HTS)” value in assay [2] is recorded as “can inhibit Variola topo I”. Moreover, the “screening result in words (E. coli topo I HTS)” value in assay [1] is on record as “can inhibit E. coli topo I”.

As usually defined, the IC50 is the concentration that gives 50% inhibition. As for `O=C1C=C(NCCc2cc(Br)c(O)c(Br)c2)C(=O)c2ncccc21` [NSC668394], the “screening result in words (Mtb topo I HTS)” value at Mtb DNA topoisomerase I is “new Mtb DNA topI inhibitors; also recorded: can inhibit Mtb topo I”. In addition, on MtbTopI, the “inhibition of MtbTopI in words (FIG. 14B and D)” value is “did not inhibit”. For the same compound, in assay [3], the half-maximal inhibitory concentration (IC50) was determined as 5 µM. Further, the “screening result in words (E. coli topo I HTS)” value in assay [1] was “new E. coli DNA Topo I inhibitor; also recorded: can inhibit E. coli topo I”.

For the compound `CCn1cc(C(=O)O)c(=O)c2cc(F)c(N3CCNCC3)cc21` [Norfloxacin], on E. coli DNA gyrase (interpretation of Table 2), the “screening result in words (Table 2, gyrase HTS)” value is “DNA intercalators”.

For the compound `CCC(C)CCCCC(=O)NC(CCN)C(=O)NC(C(=O)NC(CCN)C(=O)NC1CCNC(=O)C(C(C)O)NC(=O)C(CCN)NC(=O)C(CCN)NC(=O)C(CC(C)C)NC(=O)C(Cc2ccccc2)NC(=O)C(CCN)NC1=O)C(C)O` (centres unmarked) [Polymyxin B sulfate salt] ({Octanoyl(6-Me)}-[Dab]T[Dab][Dab][Dab]FL[Dab][Dab]T; lactam 4-C; configuration not given here), the “fluorescence, HTS screening … (Table 6; vTopI)” value in assay [2] turned out to be 1744.

Take `CN[C@H](CC(C)C)C(=O)N[C@H]1C(=O)N[C@@H](CC(N)=O)C(=O)N[C@H]2C(=O)N[C@H]3C(=O)N[C@H](C(=O)N[C@H](C(=O)O)c4cc(O)cc(O)c4-c4cc3ccc4O)[C@H](O)c3ccc(c(Cl)c3)Oc3cc2cc(c3O[C@@H]2O[C@H](CO)[C@@H](O)[C@H](O)[C@H]2OC2C[C@](C)(N)[C@H](O)[C@H](C)O2)Oc2ccc(cc2Cl)[C@H]1O` (some centres unmarked) [Vancomycin]: the “fluorescence, HTS screening … (Table 6; vTopI)” value in assay [2] came to 1398.

In the case of `Cc1ncc(C[n+]2csc(CCO)c2C)c(N)n1` [Vitamine B1], on E. coli DNA gyrase, the “fluorescence … for E. coli DNA gyrase inhibitors” value amounted to 467. For the same compound, the “fluorescence, HTS screening of 50-compound library for Mtb DNA topoisomerase 1 inhibitors” value at Mtb DNA topoisomerase I came out at 1224. Also, the “fluorescence, HTS screening of 50-compound library for E. coli DNA topoisomerase 1 inhibitors” value in assay [1] is reported as 1441.

For the compound `CC[C@@]1(O)C(=O)OCc2c1cc1n(c2=O)Cc2cc3ccccc3nc2-1` [camptothecin], the “fluorescence, HTS screening … (Table 6; vTopI)” value in assay [2] is 1712.

Regarding `CS[C@H]1SC[C@H]2C(=O)N(C)[C@@H](C(C)C)C(=O)OC[C@@H](NC(=O)c3cnc4ccccc4n3)C(=O)N[C@@H](C)C(=O)N(C)[C@@H]1C(=O)N(C)[C@@H](C(C)C)C(=O)OC[C@@H](NC(=O)c1cnc3ccccc3n1)C(=O)N[C@@H](C)C(=O)N2C` [echinomycin], the “hit call, gyrase HTS (FIG. 7)” value at E. coli DNA gyrase is “hits”. The “screening result in words (Table 2, gyrase HTS)” value on E. coli DNA gyrase (interpretation of Table 2) was “DNA intercalators”. Further, the “fluorescence, HTS screening … (Table 6; vTopI)” value in assay [2] was 1238.

As to `CCOc1ccc2nc3cc(N)ccc3c(N)c2c1` [ethacridine], the “hit call, gyrase HTS (FIG. 7)” value at E. coli DNA gyrase was “hits”. For the same compound, at E. coli DNA gyrase (interpretation of Table 2), the “screening result in words (Table 2, gyrase HTS)” value was “DNA intercalators”.

As to `NC[C@H]1O[C@H](O[C@H]2[C@H](O)[C@@H](O[C@H]3O[C@H](CO)[C@@H](O)[C@H](N)[C@H]3O)[C@H](N)C[C@@H]2N)[C@H](O)[C@@H](O)[C@@H]1O` [kanamycin], the “fluorescence … for E. coli DNA gyrase inhibitors” value on E. coli DNA gyrase was found to be 510. Besides, the “fluorescence, HTS screening of 50-compound library for Mtb DNA topoisomerase 1 inhibitors” value at Mtb DNA topoisomerase I came to 1466. For the same compound, the “fluorescence, HTS screening of 50-compound library for E. coli DNA topoisomerase 1 inhibitors” value in assay [1] is on record as 1719.

Turning to `c1ccncc1` [pyridine], the “fluorescence … for E. coli DNA gyrase inhibitors” value on E. coli DNA gyrase is 568. The “fluorescence, HTS screening of 50-compound library for DNA intercalators” value in the assay with supercoiled plasmid pAB1 is on record as 218. At Mtb DNA topoisomerase I, the “fluorescence, HTS screening of 50-compound library for Mtb DNA topoisomerase 1 inhibitors” value was 1380. Moreover, in assay [1], the “fluorescence, HTS screening of 50-compound library for E. coli DNA topoisomerase 1 inhibitors” value is reported as 1339.

For `Nc1ccc(S(N)(=O)=O)cc1` [sulfanilamide], the “fluorescence … for E. coli DNA gyrase inhibitors” value on E. coli DNA gyrase was 558. Besides, the “fluorescence, HTS screening of 50-compound library for Mtb DNA topoisomerase 1 inhibitors” value on Mtb DNA topoisomerase I turned out to be 1523. Also, the “fluorescence, HTS screening of 50-compound library for E. coli DNA topoisomerase 1 inhibitors” value in assay [1] was determined as 1426.

Turning to `Cc1ccc(C(=O)Nc2ccc(S(=O)(=O)O)c3cc(S(=O)(=O)O)cc(S(=O)(=O)O)c23)cc1NC(=O)c1cccc(NC(=O)Nc2cccc(C(=O)Nc3cc(C(=O)Nc4ccc(S(=O)(=O)O)c5cc(S(=O)(=O)O)cc(S(=O)(=O)O)c45)ccc3C)c2)c1` [suramin], the “hit call, gyrase HTS (FIG. 7)” value at E. coli DNA gyrase is “hits”. Also, the “screening result in words (Table 2, gyrase HTS)” value on E. coli DNA gyrase (interpretation of Table 2) is on record as “DNA intercalators”. Further, the “screening result in words (Mtb topo I HTS)” value at Mtb DNA topoisomerase I is recorded as “can inhibit Mtb topo I”. The “screening result in words (Variola topo I HTS)” value in assay [2] is “can inhibit Variola topo I”. Also, the “screening result in words (E. coli topo I HTS)” value in assay [1] is recorded as “can inhibit E. coli topo I”.

With `CC[C@@]1(O)C(=O)OCc2c1cc1n(c2=O)Cc2cc3c(CN(C)C)c(O)ccc3nc2-1` [topotecan], the “screening result in words (Mtb topo I HTS)” value at Mtb DNA topoisomerase I was “new Mtb DNA topI inhibitors; also recorded: can inhibit Mtb topo I”.

Turning to citrinin, in assay [2], the “fluorescence, HTS screening … (Table 6; vTopI)” value came to 1311.

The values are drawn from US11732286B2, “T5 exonuclease-based method to identify DNA topoisomerase inhibitors” (The Florida International University Board of Trustees, priority 2020, dated 2023).
